Several values for one entry are separate records, joined by “and”; a condition that tells them apart may be missing. Equal values may be shown once.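 Dose response: 5 concentrations. Exposure: 48 h. Format: 96-well plates. Endpoint: linear interpolation; highest concentration if not reached. Abbreviation: GI50, concentration required for 50% inhibition of growth. TGI marks complete inhibition of growth.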
System: MDA-MB-468 breast
Experiment: DTP human tumour cell line panel, 48 h

Structure (SMILES) | GI50 | TGI
Cc1cc(C)c(/C=C2\C(=O)Nc3ccc(NC(=O)CCCCCCC(=O)NO)cc32)[nH]1 | 0.367 µM | 22.6 µM
CN(CCO)c1ccc(N2Cc3ccccc3OC3=C2C(=O)c2c(O)ccc(O)c2C3=O)cn1 | 0.257 µM | 0.659 µM
COc1ccc(O)c(C(=O)c2ccc(C(=O)N[C@H]3CCCNC[C@@H]3NC(=O)c3ccncc3)cc2)c1F | 0.552 µM | > 25 µM
O=S(=O)(Nc1ccc(F)cc1F)c1ccc(-c2cnc(C3CC3)o2)cc1 | 0.39 µM | 7.86 µM
Cn1cc(C2=C(c3cccc(Br)c3)C(=O)NC2=O)c2ccccc21 | 6.7 µM | > 25 µM
C#COc1cccc(Nc2c(C#N)cnc3ncc(NC(=O)CCl)cc23)c1 | 12.7 µM | 60.3 µM
O=C(c1ccc(/C=C/c2n[nH]c3ccccc23)cc1)N1CCNCC1 | 2.45 µM and 9.15 µM | > 10 µM and 22.5 µM
NC(=O)OCCn1cc(-c2nc(-c3c[nH]c4ncccc34)cs2)c2ccccc21 | 1.33 µM | 3.8 µM
O[C@H](c1cc(C(F)(F)F)nc2c(C(F)(F)F)cccc12)[C@@H]1CCCCN1 | 1.72 µM | 4.19 µM
COc1ccc(-c2ccc(-c3ccc(C(=N)N)s3)s2)cc1 | 0.187 µM | 0.379 µM
CCOC(=O)c1c(NC(=O)c2cccc(C(F)(F)F)c2)sc2c(CN(C)C)c(O)ccc12 | 1.72 µM | 3.8 µM
C=C1C(=O)O[C@H]2[C@H]1CC/C(COC(=O)/C=C\C(=O)NCc1ccc(Cn3c(=O)sn(CCCC)c3=O)cc1)=C\CC[C@@]1(C)O[C@@H]21 | 0.348 µM | 1.39 µM
CCN1C(=O)N(CC)C2C1NN=c1s/c(=C3\C(=O)N(CC(C)(C)C)c4ccccc43)c(=O)n12 (centres undefined) | 3.85 µM | 18.8 µM
Cc1cc(C)c(NC(=O)c2sc3nc4c(cc3c2N)CN(Cc2ccccc2)CC4)c(C)c1 | 1.78 µM | 88.7 µM
O=C1NC(=O)/C(=C\c2ccccc2)C2=C1CCCC2 | 10.1 µM | 30.2 µM
CCn1c(=O)c2c(=O)c3c4c(oc3oc2c2ccccc21)C(=O)c1ccccc1C4=O | 0.199 µM | 0.701 µM
O=C1NC(=NCCc2cccc(Cl)c2)S/C1=C\c1ccc2ncccc2c1 | > 25 µM | > 25 µM
O=C1NC(=O)C(c2cccc([N+](=O)[O-])c2)=C1Nc1cc(Cl)c(O)c(Cl)c1 | 12.3 µM | > 25 µM
COc1ccc(-n2c(C)cc(-c3ccccc3)c2C)cc1 | 1.31 µM | 3.47 µM

Structure (SMILES) | GI50 | TGI
Cc1[nH]c(/C=C2\C(=O)Nc3ccccc32)c(C)c1CCC(=O)O | 25.6 µM | 70 µM
CCN(Cc1ccccc1C)c1ccc(CO)c(Cl)c1 | 0.0388 µM | 0.288 µM
COc1cc(OC)c(/C=C/c2c3ccccc3cc[n+]2C)c(OC)c1 | 0.266 µM | 2.66 µM
COCC1(CO)C(=O)C2CCN1CC2 (centres undefined) | 18.4 µM | 40.3 µM
CCCCCOc1ccc(/C=N/Nc2cc(C)nc3ccc(Br)cc23)cc1 | 1.83 µM | 3.57 µM
COc1cc(/C=C/C(=O)c2cc(OC)c(OC)c(OC)c2)ccc1OCc1ccc(F)cc1 | 2.84 µM | > 100 µM
O=C(NNc1nc2cc(F)c(F)cc2n2c(CN3CC4CNCC4C3)ccc12)c1cnccn1 (centres undefined) | 1.34 µM | 6.54 µM
O=C(Nc1ccc(-n2ccc3c(NC(=O)c4ccccc4)nccc32)cc1)Nc1ccc(Cl)c(Cl)c1 | 1.41 µM | 2.96 µM
CC(=O)Oc1ccccc1C(=O)Nc1ncc([N+](=O)[O-])s1 | 1.93 µM | 7.64 µM
CCCOc1ccc2sc(NC(=O)OC)nc2c1 | 1.19 µM | > 100 µM
O=C(CSc1nnc(-c2ccc(Cl)cc2)n1-c1ccccc1)Nc1cccc(F)c1 | 4.31 µM | > 100 µM
OCCCNc1nccc(-c2c(-c3ccc(F)cc3)nn3cc(C(F)(F)F)ccc23)n1 | 6.72 µM | > 20.3 µM
N=C(N)c1ccc2nc(-c3cc(CC(=O)N[C@@H](CC(=O)O)C(=O)O)cc(-c4cc(S(N)(=O)=O)ccc4O)c3O)[nH]c2c1 | > 100 µM | > 100 µM
O=C(CSC1CCc2ccccc21)N/N=C/c1ccccc1O (centres undefined) | 2.73 µM | 13.9 µM
C1=C\COCc2cc(ccc2OCCN2CCCC2)Nc2nccc(n2)-c2cccc(c2)COC/1 | 1.32 µM | 3.79 µM
C[C@H]1[C@H](C)CC[C@]2(C(=O)Nc3ccc4ncccc4c3)CC[C@]3(C)C(=CC[C@@H]4[C@@]5(C)CCCNC(C)(C)[C@@H]5CC[C@]43C)[C@H]12 | 1.74 µM | 3.45 µM
COC(=O)[C@@H](C)C[C@H](Cc1ccccc1)NC(=O)c1csc([C@@H](C[C@H](C(C)C)N(C)C(=O)[C@@H](NC(=O)[C@H]2CCCCN2C)C2CCCCC2)OC(C)=O)n1 | 0.000311 µM and 0.0025 µM | > 25 µM
CCOC(=O)/C=C(/C)Sc1cc(O)c2ccccc2c1O | 3.55 µM | 12.1 µM

Source: PubChem BioAssay (NCI)
